According to patent US20240382432A1, “SINGLE CHAIN VARIABLE FRAGMENT (SCFV) MODIFIED LIPID NANOPARTICLE COMPOSITIONS AND USES THEREOF” (Generation Bio Co., priority 2021, published 2024):

How the values were obtained:
HER2 receptor [1] = assay: HER2 scFv binding in cell-based assay (Alexa-fluor 488 labeled scFv); set-up: species or system human
Protocol: (§1) As proof of concept, HER2 scFv binding and internalization in cell-based assays in vitro was carried out.

HER2 receptor [2] = assay: HER2 scFv ligand internalization in cell-based assay (pHrhodo label); set-up: species or system human; conditions: MCF7 HER2- cell line; FIG. 1F
Protocol: as §1

HER2 receptor [3] = biological target: T1, HER2 receptor (Homo sapiens, UniProt P04626); assay: as above
T1 construct: endogenous in cells; host or cells: Sk-BR3, Sk-OV3 (HER2+); MCF7 (HER2-, negative control)
Protocol: as §1

- ligand internalization (HER2 receptor [3]; Sk-BR3 cells (HER2+), FIG. 1D): showed ligand internalization
- ligand internalization (HER2 receptor [3]; Sk-OV3 cells (HER2+), FIG. 1E): showed ligand internalization
Substance: trastuzumab-derived α-HER2 scFv: trastuzumab-derived single-chain variable fragment directed against HER2 (SEQ ID NO:1 core sequence)
- HER2 receptor engagement (HER2 receptor [1]; MCF7 cells, do not express HER2 receptor (HER2-), FIG. 1C): not in MCF7 cells
- HER2 receptor engagement (HER2 receptor [1]; Sk-BR3 HER2 expressing (HER2+) cell line, FIG. 1A): HER2 receptor engagement
- HER2 receptor engagement (HER2 receptor [1]; Sk-OV3 HER2 expressing (HER2+) cell line, FIG. 1B): HER2 receptor engagement
- ligand internalization (HER2 receptor [2]): did not
